US20140045823A1 (Neurocrine Biosciences, Inc., priority 2012, published 2014)

Target: T1, human GPR119 (Homo sapiens, UniProt Q8TDV5)
T1 construct: expression vector for human GPR119 cDNA (Acc. No. NP_848566); expressed in transfected cells; Min-6/hGPR119
T1 sequence (Q8TDV5 1-335): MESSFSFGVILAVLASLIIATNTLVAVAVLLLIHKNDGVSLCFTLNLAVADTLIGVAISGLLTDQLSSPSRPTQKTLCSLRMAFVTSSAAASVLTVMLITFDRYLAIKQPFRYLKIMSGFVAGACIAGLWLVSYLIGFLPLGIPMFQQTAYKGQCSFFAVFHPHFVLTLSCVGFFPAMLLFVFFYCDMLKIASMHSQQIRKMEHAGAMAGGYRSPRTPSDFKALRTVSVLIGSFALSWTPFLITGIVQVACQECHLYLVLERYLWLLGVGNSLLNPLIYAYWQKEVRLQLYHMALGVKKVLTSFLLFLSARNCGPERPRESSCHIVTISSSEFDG
Test: AlphaScreen cAMP assay in MIN6 cells stably transfected with human GPR119
Type: cell-based
Conditions: Min-6/hGPR119 cells, 45 min at room temperature
Summary of the method: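 cAMP accumulation quantified by AlphaScreen after 45 min compound stimulation at about 20 °C. Stimulation buffer: pH 7.4 HEPES saline with 0.5 mM IBMX, 0.1% BSA, 1% DMSO final. Cells: MIN6 stably transfected with human GPR119, 10000/well, cultured 24 h beforehand.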

SMILES	EC50 [µM]
CN(CC1CCOCC1)C(=O)c1ccc(-c2ncc(C(=O)N(C3CC3)C3CCN(C(=O)OC(C)(C)C)CC3)cn2)cc1 [Example 193, 4-[Cyclopropyl-(2-{4-[methyl-(tetrahydro-pyran-4-ylmethyl)-carbamoyl]-phenyl}-pyrimidine-5-carbonyl)-amino]-piperidine-1-carboxylic acid tert-butyl ester]	0.3
CO[C@@H]1CCN(C(=O)Cc2ccc(-c3ncc(C(=O)N(C4CC4)C4CCN(C(=O)OC(C)(C)C)CC4)cn3)cc2)C1 [Example 194, 4-[Cyclopropyl-(2-{4-[2-(3-methoxy-pyrrolidin-1-yl)-2-oxo-ethyl]-phenyl}-pyrimidine-5-carbonyl)-amino]-piperidine-1-carboxylic acid tert-butyl ester]	0.325
COCCN(C)C(=O)Cc1ccc(-c2ncc(C(=O)N(C3CC3)C3CCN(C(=O)OC(C)(C)C)CC3)cn2)cc1 [Example 195, 4-{Cyclopropyl-[2-(4-{[(2-methoxy-ethyl)-methyl-carbamoyl]-methyl}-phenyl)-pyrimidine-5-carbonyl]-amino}-piperidine-1-carboxylic acid tert-butyl ester]	0.486
COCCN(C)C(=O)c1ccc(-c2ncc(C(=O)N(C3CC3)C3CCN(C(=O)OC(C)(C)C)CC3)cn2)cc1 [Example 196, 4-[Cyclopropyl-(2-{4-[(2-methoxy-ethyl)-methyl-carbamoyl]-phenyl}-pyrimidine-5-carbonyl)-amino]-piperidine-1-carboxylic acid tert-butyl ester]	0.215
CN(Cc1cccnc1)C(=O)c1ccc(-c2ncc(C(=O)N(C3CC3)C3CCN(C(=O)OC(C)(C)C)CC3)cn2)cc1 [Example 197, 4-(Cyclopropyl-{2-[4-(methyl-pyridin-3-ylmethyl-carbamoyl)-phenyl]-pyrimidine-5-carbonyl}-amino)-piperidine-1-carboxylic acid tert-butyl ester]	0.169
COCC(C)NC(=O)Cc1ccc(-c2ncc(C(=O)N(C3CC3)C3CCN(C(=O)OC(C)(C)C)CC3)cn2)cc1 (stereo not drawn) [Example 198, 4-[Cyclopropyl-(2-{4-[(2-methoxy-1-methyl-ethylcarbamoyl)-methyl]-phenyl}-pyrimidine-5-carbonyl)-amino]-piperidine-1-carboxylic acid tert-butyl ester]	0.715
Cc1cnc(CNC(=O)Cc2ccc(-c3ncc(C(=O)N(C4CC4)C4CCN(C(=O)OC(C)(C)C)CC4)cn3)cc2)s1 [Example 199, 4-{Cyclopropyl-[2-(4-{[(5-methyl-thiazol-2-ylmethyl)-carbamoyl]-methyl}-phenyl)-pyrimidine-5-carbonyl]-amino}-piperidine-1-carboxylic acid tert-buyl ester]	0.395
CN(C)C(=O)CNC(=O)c1ccc(-c2ncc(C(=O)N(C3CC3)C3CCN(C(=O)OC(C)(C)C)CC3)cn2)cc1 [Example 200, 4-(Cyclopropyl-{2-[4-(dimethylcarbamoylmethyl-carbamoyl)-phenyl]-pyrimidine-5-carbonyl}-amino)-piperidine-1-carboxylic acid tert-butyl ester]	0.449
Cc1nc(CNC(=O)c2ccc(-c3ncc(C(=O)N(C4CC4)C4CCN(C(=O)OC(C)(C)C)CC4)cn3)cc2)cs1 [Example 201, 4-[Cyclopropyl-(2-{4-[(2-methyl-thiazol-4-ylmethyl)-carbamoyl]-phenyl}-pyrimidine-5-carbonyl)-amino]-piperidine-1-carboxylic acid tert-butyl ester]	0.18
CN(CC1CCOC1)C(=O)c1ccc(-c2ncc(C(=O)N(C3CC3)C3CCN(C(=O)OC(C)(C)C)CC3)cn2)cc1 (stereo not drawn) [Example 202, 4-[Cyclopropyl-(2-{4-[methyl-(tetrahydro-furan-3-ylmethyl)-carbamoyl]-phenyl}-pyrimidine-5-carbonyl)-amino]-piperidine-1-carboxylic acid tert-butyl ester]	0.171
COC[C@H]1CCCN1C(=O)c1ccc(-c2ncc(C(=O)N(C3CC3)C3CCN(C(=O)OC(C)(C)C)CC3)cn2)cc1 [Example 203, 4-(Cyclopropyl-{2-[4-(2-methoxymethyl-pyrrolidine-1-carbonyl)-phenyl]-pyrimidine-5-carbonyl}-amino)-piperidine-1-carboxylic acid tert-butyl ester]	0.295
COC[C@@H]1CCCN1C(=O)c1ccc(-c2ncc(C(=O)N(C3CC3)C3CCN(C(=O)OC(C)(C)C)CC3)cn2)cc1 [Example 204, 4-(Cyclopropyl-{2-[4-(2-methoxymethyl-pyrrolidine-1-carbonyl)-phenyl]-pyrimidine-5-carbonyl}-amino)-piperidine-1-carboxylic acid tert-butyl ester]	0.302
CN(C(=O)c1ccc(-c2ncc(C(=O)N(C3CC3)C3CCN(C(=O)OC(C)(C)C)CC3)cn2)cc1)C1CCOCC1 [Example 205, 4-[Cyclopropyl-(2-{4-[methyl-(tetrahydro-pyran-4-yl)-carbamoyl]-phenyl}-pyrimidine-5-carbonyl)-amino]-piperidine-1-carboxylic acid tert-butyl ester]	0.347
CN(CC1(C)COC1)C(=O)c1ccc(-c2ncc(C(=O)N(C3CC3)C3CCN(C(=O)OC(C)(C)C)CC3)cn2)cc1 [Example 206, 4-[Cyclopropyl-(2-{4-[methyl-(3-methyl-oxetan-3-ylmethyl)-carbamoyl]-phenyl}-pyrimidine-5-carbonyl)-amino]-piperidine-1-carboxylic acid tert-butyl ester]	0.312
CC(C)(C)OC(=O)N1CCC(N(C(=O)c2cnc(-c3ccc(C(=O)NCCn4ccc(C5CC5)n4)cc3)nc2)C2CC2)CC1 [Example 207, 4-[Cyclopropyl-(2-{4-[2-(3-cyclopropyl-pyrazol-1-yl)-ethylcarbamoyl]-phenyl}-pyrimidine-5-carbonyl)-amino]-piperidine-1-carboxylic acid tert-butyl ester]	0.369
CC(C)(C)OC(=O)N1CCC(N(C(=O)c2cnc(-c3ccc(C(=O)Nc4ccn[nH]4)cc3)nc2)C2CC2)CC1 [Example 208, 4-(Cyclopropyl-{2-[4-(2H-pyrazol-3-ylcarbamoyl)-phenyl]-pyrimidine-5-carbonyl}-amino)-piperidine-1-carboxylic acid tert-butyl ester]	0.181
CN(Cc1ccncc1)C(=O)Cc1ccc(-c2ncc(C(=O)N(C3CC3)C3CCN(C(=O)OC(C)(C)C)CC3)cn2)cc1 [Example 209, 4-[Cyclopropyl-(2-{4-[(methyl-pyridin-4-ylmethyl-carbamoyl)-methyl]-phenyl}-pyrimidine-5-carbonyl)-amino]-piperidine-1-carboxylic acid tert-butyl ester]	0.312
CC(O)c1cccc(NC(=O)Cc2ccc(-c3ncc(C(=O)N(C4CC4)C4CCN(C(=O)OC(C)(C)C)CC4)cn3)cc2)c1 (stereo not drawn) [Example 210, 4-{Cyclopropyl-[2-(4-{[3-(1-hydroxy-ethyl)-phenylcarbamoyl]-methyl}-phenyl)-pyrimidine-5-carbonyl]-amino}-piperidine-1-carboxylic acid tert-butyl ester]	0.593
CC(C)(C)OC(=O)N1CCC(N(C(=O)c2cnc(-c3ccc(CC(=O)N4CCC[C@@H]4C#N)cc3)nc2)C2CC2)CC1 [Example 211, 4-[(2-{4-[2-(2-Cyano-pyrrolidin-1-yl)-2-oxo-ethyl]-phenyl}-pyrimidine-5-carbonyl)-cyclopropyl-amino]-piperidine-1-carboxylic acid tert-butyl ester]	0.561
COC[C@@H]1CCCN1C(=O)Cc1ccc(-c2ncc(C(=O)N(C3CC3)C3CCN(C(=O)OC(C)(C)C)CC3)cn2)cc1 [Example 212, 4-[Cyclopropyl-(2-{4-[2-(2-methoxymethyl-pyrrolidin-1-yl)-2-oxo-ethyl]-phenyl}-pyrimidine-5-carbonyl)-amino]-piperidine-1-carboxylic acid tert-butyl ester]	0.35
CC(C)(C)OC(=O)N1CCC(N(C(=O)c2cnc(-c3ccc(CC(=O)NC4CCOCC4)cc3)nc2)C2CC2)CC1 [Example 213, 4-[Cyclopropyl-(2-{4-[(tetrahydro-pyran-4-ylcarbamoyl)-methyl]-phenyl}-pyrimidine-5-carbonyl)-amino]-piperidine-1-carboxylic acid tert-butyl ester]	0.521
CC(C)(C)OC(=O)N1CCC(N(C(=O)c2cnc(-c3ccc(CC(=O)N4CCC[C@H]4C#N)cc3)nc2)C2CC2)CC1 [Example 214, 4-[(2-{4-[2-(2-Cyano-pyrrolidin-1-yl)-2-oxo-ethyl]-phenyl}-pyrimidine-5-carbonyl)-cyclopropyl-amino]-piperidine-1-carboxylic acid tert-butyl ester]	0.418
CC(C)(C)OC(=O)N1CCC(N(C(=O)c2cnc(-c3ccc(CC(=O)NCc4ccccn4)cc3)nc2)C2CC2)CC1 [Example 215, 4-{Cyclopropyl-[2-(4-{[(pyridin-2-ylmethyl)-carbamoyl]-methyl}-phenyl)-pyrimidine-5-carbonyl]-amino}-piperidine-1-carboxylic acid tert-butyl ester]	0.393
COC1CN(C(=O)Cc2ccc(-c3ncc(C(=O)N(C4CC4)C4CCN(C(=O)OC(C)(C)C)CC4)cn3)cc2)C1 [Example 216, 4-[Cyclopropyl-(2-{4-[2-(3-methoxy-azetidin-1-yl)-2-oxo-ethyl]-phenyl}-pyrimidine-5-carbonyl)-amino]-piperidine-1-carboxylic acid tert-butyl ester]	0.424
